According to ChEMBL document CHEMBL6153133, “Discovery of Diphenyl Ether Derivatives as Novel BKCa Channel Activators: Structure-Activity Relationship, Cryo-EM Complex Structures, and In Vivo Animal Studies” (J Med Chem, 2025):

Experiments:
[1] = molecular target: Calcium-activated potassium channel subunit alpha-1 (Homo sapiens, UniProt Q12791, G803D/N806K); experiment: Activation of hyperactive human BKca channel G803D/N806K mutant transfected in human AD-293 cells incubated for 15 mins by Flexstation3 multimode microplate reader analysis; assay type: cell-based
[2] = Activation of rat BKca channel extracted from Xenopus laevis Oocytes by patch-clamp electrophysiology recordings; assay type: cell-based; conditions: Oocyte
[3] = Metabolic stability in rat liver microsomes assessed as parent compound remaining at 1 uM preincubated for 5 mins followed by NADPH addition and measured after 30 mins by LC-MS/MS analysis; assay type: ADME, Microsome; conditions: read-out: Stability
[4] = Metabolic stability in human liver microsomes assessed as parent compound remaining at 1 uM preincubated for 5 mins followed by NADPH addition and measured after 30 mins by LC-MS/MS analysis; assay type: ADME, Microsome; conditions: read-out: Stability
[5] = Metabolic stability in rat liver microsomes assessed as parent compound remaining at 1 uM preincubated for 15 mins followed by UDPGA addition and measured after 60 mins by LC-MS/MS analysis; assay type: ADME, Microsome; conditions: time 75 min, read-out: Stability
[6] = Metabolic stability in human liver microsomes assessed as parent compound remaining at 1 uM preincubated for 15 mins followed by UDPGA addition and measured after 60 mins by LC-MS/MS analysis; assay type: ADME, Microsome; conditions: time 75 min, read-out: Stability
[7] = Permeability of compound at pH 7.4 measured after 4 hrs by GIT-PAMPA assay; assay type: ADME; conditions: read-out: permeability
[8] = Drug metabolism in male Sprague-Dawley rat assessed as glucuronide conjugated metabolite formation at 10 mg/kg, po measured after approximately 4.2 hrs by LC-MS/MS analysis; assay type: ADME, organism-based; conditions: in vivo
[9] = molecular target: T1, Calcium-activated potassium channel subunit alpha-1 (Homo sapiens, UniProt Q12791); experiment: Activation of human BK ca channel expressed in CHO cells by whole cell patch clamp method; assay type: cell-based
[10] = Cmax in male Sprague-Dawley rat at 10 mg/kg, po by LC-MS/MS analysis; assay type: ADME, organism-based; conditions: in vivo
[11] = Tmax in male Sprague-Dawley rat at 10 mg/kg, po by LC-MS/MS analysis; assay type: ADME, organism-based; conditions: in vivo
[12] = Half-life in male Sprague-Dawley rat at 10 mg/kg, po by LC-MS/MS analysis; assay type: ADME, organism-based; conditions: in vivo
[13] = AUClast in male Sprague-Dawley rat at 10 mg/kg, po by LC-MS/MS analysis; assay type: ADME, organism-based; conditions: in vivo
[14] = Aqueous solubility of compound in pure distilled water at >50 mg/ml; assay type: physicochemical; conditions: buffer
[15] = Aqueous solubility of compound in PBS at >50 mg/ml; assay type: physicochemical; conditions: buffer
[16] = Toxicity in male spontaneous hypertensive rat model at 100 mg/kg, po; assay type: organism-based; conditions: in vivo
Rattus norvegicus [17] = experiment: Reversal of urinary incontinence in male spontaneous hypertensive rat model assessed as decrease in urine frequency at 100 mg/kg, po measured after 3 hrs relative to control; assay type: functional; set-up: scale not given: the % may be the effect or the level left
Rattus norvegicus [18] = experiment: Reversal of urinary incontinence in male spontaneous hypertensive rat model assessed as decrease in urine volume at 100 mg/kg, po measured after 3 hrs relative to control; assay type: functional; set-up: scale not given: the % may be the effect or the level left
[19] = Half-life in male Dunkin Hartley guinea pig at 10 mg/kg, iv by LC-MS/MS analysis; assay type: ADME, organism-based, Cavia porcellus; conditions: in vivo
[20] = AUClast in male Dunkin Hartley guinea pig at 10 mg/kg, iv by LC-MS/MS analysis; assay type: ADME, organism-based, Cavia porcellus; conditions: in vivo
[21] = Clearance in male Dunkin Hartley guinea pig at 10 mg/kg, iv by LC-MS/MS analysis; assay type: ADME, organism-based, Cavia porcellus; conditions: in vivo
[22] = Volume of distribution at steady state in male Dunkin Hartley guinea pig at 10 mg/kg, iv by LC-MS/MS analysis; assay type: ADME, organism-based, Cavia porcellus; conditions: in vivo, read-out: Vdss
[23] = Cmax in male Dunkin Hartley guinea pig at 10 mg/kg, po by LC-MS/MS analysis; assay type: ADME, organism-based, Cavia porcellus; conditions: in vivo
[24] = Tmax in male Dunkin Hartley guinea pig at 10 mg/kg, po by LC-MS/MS analysis; assay type: ADME, organism-based, Cavia porcellus; conditions: in vivo
[25] = Half-life in male Dunkin Hartley guinea pig at 10 mg/kg, po by LC-MS/MS analysis; assay type: ADME, organism-based, Cavia porcellus; conditions: in vivo
[26] = AUClast in male Dunkin Hartley guinea pig at 10 mg/kg, po by LC-MS/MS analysis; assay type: ADME, organism-based, Cavia porcellus; conditions: in vivo
[27] = Oral bioavailability in male Dunkin Hartley guinea pig at 10 mg/kg by LC-MS/MS analysis; assay type: ADME, organism-based, Cavia porcellus; conditions: in vivo
[28] = Drug concentration in male Dunkin Hartley guinea pig lung at 10 mg/kg, po measured after 1 hrs by LC-MS/MS analysis; assay type: ADME, organism-based, Cavia porcellus; conditions: read-out: Ct
[29] = Drug concentration in male Dunkin Hartley guinea pig lung at 10 mg/kg, po measured after 4 hrs by LC-MS/MS analysis; assay type: ADME, organism-based, Cavia porcellus; conditions: read-out: Ct
[30] = Drug concentration in male Dunkin Hartley guinea pig brain at 10 mg/kg, po measured after 1 hrs by LC-MS/MS analysis; assay type: ADME, organism-based, Cavia porcellus; conditions: read-out: Ct
[31] = Drug concentration in male Dunkin Hartley guinea pig brain at 10 mg/kg, po measured after 4 hrs by LC-MS/MS analysis; assay type: ADME, organism-based, Cavia porcellus; conditions: read-out: Ct
[32] = Drug concentration in male Dunkin Hartley guinea pig blood at 10 mg/kg, po measured after 1 hrs by LC-MS/MS analysis; assay type: ADME, organism-based, Cavia porcellus; conditions: read-out: Ct
[33] = Drug concentration in male Dunkin Hartley guinea pig blood at 10 mg/kg, po measured after 4 hrs by LC-MS/MS analysis; assay type: ADME, organism-based, Cavia porcellus; conditions: read-out: Ct
[34] = Ratio of drug concentration in male Dunkin Hartley guinea pig lung to plasma at 10 mg/kg, po measured after 1 hrs by LC-MS/MS analysis; assay type: ADME, organism-based, Cavia porcellus
[35] = Ratio of drug concentration in male Dunkin Hartley guinea pig lung to plasma at 10 mg/kg, po measured after 4 hrs by LC-MS/MS analysis; assay type: ADME, organism-based, Cavia porcellus
[36] = Ratio of drug concentration in male Dunkin Hartley guinea pig brain to plasma at 10 mg/kg, po measured after 1 hrs by LC-MS/MS analysis; assay type: ADME, organism-based, Cavia porcellus; conditions: read-out: BPR
[37] = Ratio of drug concentration in male Dunkin Hartley guinea pig brain to plasma at 10 mg/kg, po measured after 4 hrs by LC-MS/MS analysis; assay type: ADME, organism-based, Cavia porcellus; conditions: read-out: BPR
Cavia porcellus [38] = experiment: Antitussive activity in citric acid-induced male Dunkin Hartley guinea pig cough model assessed as reduction in cough number at 8 mg/kg, po pretreated with compound for 4 hrs followed by citric acid administration and measured after 10 mins relative to control; assay type: functional; set-up: scale not given: the % may be the effect or the level left; conditions: time 250 min, 4.167 h
Cavia porcellus [39] = experiment: Antitussive activity in citric acid-induced male Dunkin Hartley guinea pig cough model assessed as reduction in cough number at 20 mg/kg, po pretreated with compound for 4 hrs followed by citric acid administration and measured after 10 mins relative to control; assay type: functional; set-up: scale not given: the % may be the effect or the level left; conditions: time 250 min, 4.167 h
Cavia porcellus [40] = experiment: Antitussive activity in citric acid-induced male Dunkin Hartley guinea pig cough model assessed as reduction in cough number at 50 mg/kg, po pretreated with compound for 4 hrs followed by citric acid administration and measured after 10 mins relative to control; assay type: functional; set-up: scale not given: the % may be the effect or the level left; conditions: time 250 min, 4.167 h
Cavia porcellus [41] = experiment: Antitussive activity in citric acid-induced male Dunkin Hartley guinea pig cough model assessed as reduction in cough number pretreated orally with compound for 4 hrs followed by citric acid administration and measured after 10 mins; assay type: functional; conditions: 4.167 h, route po, time 250 min
[42] = system: Calcium-activated potassium channel subunit alpha-1 (Homo sapiens), Q12791 [UNDEFINED MUTATION]; experiment: Activation of hyperactive human BKca channel G803D/N806K mutant transfected in human AD-293 cells assessed as maximum relative fluorescence value at 5 uM preincubated for 15 mins followed by Tl+ stimulus buffer addition and measured after 80 sec by Flexstation3 multimode microplate reader analysis relative to control; assay type: cell-based; conditions: time 980.0 sec
[43] = molecular target: T1, Calcium-activated potassium channel subunit alpha-1; experiment: Activation of BKca channel (unknown origin) by cell-based fluorescence assay
[44] = molecular target: T1, Calcium-activated potassium channel subunit alpha-1; experiment: Activation of BKca channel (unknown origin) by cell based method
Urinary bladder = experiment: Induction of relaxation in Sprague-Dawley rat urinary bladder strips assessed as reduction in contraction; assay type: functional, tissue-based

T1 sequence (Q12791 whole entry): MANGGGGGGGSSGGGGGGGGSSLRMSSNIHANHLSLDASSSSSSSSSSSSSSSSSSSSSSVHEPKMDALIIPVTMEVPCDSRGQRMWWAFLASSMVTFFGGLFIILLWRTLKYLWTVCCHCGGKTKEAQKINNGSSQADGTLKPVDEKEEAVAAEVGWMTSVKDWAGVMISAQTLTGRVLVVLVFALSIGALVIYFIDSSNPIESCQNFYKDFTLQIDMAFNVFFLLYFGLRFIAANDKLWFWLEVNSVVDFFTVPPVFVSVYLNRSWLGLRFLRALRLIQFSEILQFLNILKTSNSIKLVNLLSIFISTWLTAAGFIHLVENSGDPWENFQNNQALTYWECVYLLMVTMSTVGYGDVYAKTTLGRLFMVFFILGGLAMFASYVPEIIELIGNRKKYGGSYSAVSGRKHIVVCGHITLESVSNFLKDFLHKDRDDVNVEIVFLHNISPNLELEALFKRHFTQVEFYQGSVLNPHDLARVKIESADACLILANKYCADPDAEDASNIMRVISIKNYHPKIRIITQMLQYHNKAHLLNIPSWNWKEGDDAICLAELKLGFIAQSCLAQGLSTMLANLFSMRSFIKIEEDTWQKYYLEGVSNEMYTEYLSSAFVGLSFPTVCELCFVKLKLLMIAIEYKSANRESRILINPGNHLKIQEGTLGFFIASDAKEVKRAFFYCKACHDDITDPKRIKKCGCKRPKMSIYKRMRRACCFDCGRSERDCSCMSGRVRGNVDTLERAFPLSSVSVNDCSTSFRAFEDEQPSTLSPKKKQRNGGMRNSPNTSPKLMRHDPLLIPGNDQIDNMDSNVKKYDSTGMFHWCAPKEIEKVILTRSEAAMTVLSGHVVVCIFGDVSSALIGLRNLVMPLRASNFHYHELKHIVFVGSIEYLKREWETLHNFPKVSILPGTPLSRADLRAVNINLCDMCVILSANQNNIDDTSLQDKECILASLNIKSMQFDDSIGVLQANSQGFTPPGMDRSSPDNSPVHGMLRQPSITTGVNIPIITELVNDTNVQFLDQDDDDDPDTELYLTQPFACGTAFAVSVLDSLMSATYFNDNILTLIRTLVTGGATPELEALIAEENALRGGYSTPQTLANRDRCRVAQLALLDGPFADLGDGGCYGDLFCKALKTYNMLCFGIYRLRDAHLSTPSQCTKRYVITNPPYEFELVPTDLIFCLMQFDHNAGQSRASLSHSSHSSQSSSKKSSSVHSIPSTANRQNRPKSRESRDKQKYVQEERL
Calcium-activated potassium channel subunit alpha-1 (Homo sapiens, UniProt Q12791, G803D/N806K), sequence (Q12791 whole entry, looked up, stated change not applied): as the sequence (Q12791 whole entry) above
Calcium-activated potassium channel subunit alpha-1 (Homo sapiens), Q12791 [UNDEFINED MUTATION], sequence (Q12791 whole entry, looked up, stated change not applied): as the sequence (Q12791 whole entry) above

## Nc1ccc(Oc2c(F)c(F)c(C(F)(F)F)c(F)c2F)c(O)c1
[1]
  EC50: 0.12 µM
[2]
  EC50: 0.28 µM
[3]
  remaining at 0.5 h, 1 µM: 34.6%
[4]
  remaining at 0.5 h, 1 µM: 97%
[5]
  remaining at 1 h, 1 µM: 5.8%
[6]
  remaining at 1 h, 1 µM: 4.8%
[7]
  Papp at 4 h: 41.1 ×10⁻⁶ cm/s
[8]
  Drug metabolism: metabolite_detected

## CCc1oc2ccccc2c1C(=O)c1cc(Br)c(O)c(Br)c1 [BENZBROMARONE]
[9]
  EC50: 111 µM

## Cl.Cl.Oc1cc(NCCCCCN2CCOCC2)ccc1Oc1c(F)c(F)c(C(F)(F)F)c(F)c1F
[10]
  Cmax: 283 ng/mL
[11]
  Tmax: 0.4 h
[12]
  half-life: 7.1 h
[13]
  AUC(0-t): 844 ng·h/mL
[14]
  solubility: soluble
[15]
  solubility: soluble
[16]
  Activity: Non-toxic
Rattus norvegicus [17]
  Activity: 61.4%
Rattus norvegicus [18]
  Activity: 62.6%
[19]
  half-life: 4 h
[20]
  AUC(0-t): 1800 ng·h/mL
[21]
  clearance: 93.3 mL/min/kg
[22]
  Vd: 18.1 L/kg
[23]
  Cmax: 31.8 ng/mL
[24]
  Tmax: 1.8 h
[25]
  half-life: 4.7 h
[26]
  AUC(0-t): 188 ng·h/mL
[27]
  bioavailability: 10.5%
[28]
  concentration at 1 h: 8160 ng/g
[29]
  concentration at 4 h: 13500 ng/g
[30]
  concentration at 1 h: 424 ng/g
[31]
  concentration at 4 h: 414 ng/g
[32]
  concentration at 1 h: 28 ng/mL
[33]
  concentration at 4 h: 23 ng/mL
[34]
  Kp at 1 h: 291
[35]
  Kp at 4 h: 587
[36]
  Kp at 1 h: 15
[37]
  Kp at 4 h: 18
Cavia porcellus [38]
  Activity: 25.4%
Cavia porcellus [39]
  Activity: 54.4%
Cavia porcellus [40]
  Activity: 69.3%
Cavia porcellus [41]
  ED50: 11.8 mg/kg

## O=C(O)c1ccc(Cl)c2c1[nH]c1c3ccc(C(F)(F)F)cc3oc12
[42]
  Activity: 34.9%
[43]
  EC50: 5.4 µM
[44]
  EC50: 5.4 µM
Urinary bladder
  EC50: 2.5 µM
